Legend:
[1] = Immune system enhancement / suppression; conditions: β analog: at the same concentrations at which the compound is immunostimulatory
[2] = tested on: human lymphocytes (peripheral blood mononuclear cells); conditions: known; cited from earlier work
B cells = conditions: predominantly a subset of mature B lymphocytes; cited from earlier work
macrophages and NK cells = conditions: cited from earlier work

## Nc1cc2c(ncn2[C@H]2C[C@H](O)[C@@H](CO)O2)c(=O)[nH]1 [2'-deoxy-3-deazaguanosine]
[1]
  immunosuppressive / immune enhancing effect: immunosuppressive

## Nc1nc2c(ncn2[C@H]2C[C@H](O)[C@@H](CO)O2)c(=O)[nH]1 [2'-deoxyguanosine]
[1]
  immunosuppressive / immune enhancing effect: not immune system enhancers

## Nc1cc2c(ncn2[C@@H]2O[C@H](CO)[C@@H](O)[C@H]2O)c(=O)[nH]1 [3-deazaguanosine]
[1]
  immunosuppressive / immune enhancing effect: not immune system enhancers

## Nc1nc2c(nc(Br)n2[C@@H]2O[C@H](CO)[C@@H](O)[C@H]2O)c(=O)[nH]1 [8-bromoguanosine]
[2]
  activation of lymphocytes to proliferate: activate lymphocytes to proliferate
B cells
  stimulation of B cell proliferation: stimulate proliferation of B cells
Macrophages and NK cells
  activation of macrophages and NK cells: activate macrophages and NK cells

## Nc1nc2c(nc(S)n2[C@@H]2O[C@H](CO)[C@@H](O)[C@H]2O)c(=O)[nH]1 [8-mercaptoguanosine]
[2]
  activation of lymphocytes to proliferate: activate lymphocytes to proliferate
B cells
  stimulation of B cell proliferation: stimulate proliferation of B cells

Reference: patent US4950647A, “T cell immunopotentiator” (Nucleic Acid Research Institute, priority 1988, dated 1990)
